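Briefly, cells in 96-well plates were exposed to five compound concentrations for 48 h, and endpoints were estimated by linear interpolation. GI50 is the concentration that inhibits growth by half. TGI: total growth inhibition.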
How the values were obtained:
Assay in all cases: growth of human tumour cells (NCI), 48 h
[1] = system: OVCAR-4 ovarian
[2] = system: MALME-3M melanoma
[3] = system: A549 NSCLC
[4] = system: SNB-75 CNS
[5] = system: BT-549 breast
[6] = system: HOP-92 NSCLC
[7] = system: HOP-62 NSCLC
[8] = system: OVCAR-3 ovarian
[9] = system: NCI-H226 lung
[10] = system: KM12 colon

SMILES | TGI [1] | TGI [2] | TGI [3] | TGI [4] | TGI [5] | TGI [6] | TGI [7] | TGI [8] | TGI [9] | TGI [10] | GI50 [1] | GI50 [2] | GI50 [3] | GI50 [4] | GI50 [5] | GI50 [6] | GI50 [7] | GI50 [8] | GI50 [9] | GI50 [10]
CSC1=NS(=O)(=O)c2cc(C(=O)NN(C)C(=O)c3cc4c(cc3Cl)SC(SC)=NS4(=O)=O)c(Cl)cc2S1 | > 10 µM | > 10 µM | > 10 µM | > 10 µM | > 10 µM | > 10 µM | > 10 µM | > 10 µM | > 10 µM | > 10 µM | – | – | – | – | – | – | – | – | – | –
COc1ccc2nc3cc(Cl)ccc3c(NCCNCCCNC(=O)c3cc(-c4ccccc4)nc4ccccc34)c2c1 | > 100 µM | > 100 µM | > 100 µM | > 100 µM | > 100 µM | > 100 µM | > 100 µM | > 100 µM | > 100 µM | > 100 µM | – | – | – | – | – | – | – | – | – | –
O=C1C(Br)=C(c2ccccc2)S(=O)c2ccccc21 (centres undefined) | 5.86 µM | 22.4 µM | 62 µM | 31.1 µM | 32.1 µM | 36.8 µM | 5.68 µM | 26 µM | 40.7 µM | 30.7 µM | – | – | – | – | – | – | – | – | – | –
COc1c(C)c(OC)c2c(c1O)[C@@H]1[C@@H]3Cc4c(OC)c(C)c(OC)c(O)c4[C@H](CNC(=O)c4cnc5ccccc5n4)N3[C@@H](C#N)[C@H](C2)N1C | 0.00898 µM | 0.00458 µM | > 0.1 µM | 0.00552 µM | 0.02 µM | 0.0129 µM | > 0.1 µM | 0.0168 µM | 0.00622 µM | 0.00382 µM | – | – | – | – | – | – | – | – | – | –
CCOC(=O)C(CS)NC(=O)CCCCCCCC(=O)NC(CS)C(=O)OCC (centres undefined) | > 100 µM | > 100 µM | > 100 µM | > 100 µM | > 100 µM | > 100 µM | > 100 µM | > 100 µM | > 100 µM | > 100 µM | – | – | – | – | – | – | – | – | – | –
Cc1c(NC2(C)C(=O)N(/N=C/c3ccccc3)N=C2c2ccccc2)n[nH]c1-c1ccccc1 (centres undefined) | > 100 µM | > 100 µM | > 100 µM | > 100 µM | > 100 µM | > 100 µM | > 100 µM | > 100 µM | > 100 µM | > 100 µM | – | – | – | – | – | – | – | – | – | –
COc1ccc(C(=O)N2c3ccccc3Sc3ccccc32)c(C(F)(F)F)c1 | > 100 µM | > 100 µM | > 100 µM | > 100 µM | 13.6 µM | 3.91 µM | > 100 µM | 28.1 µM | 83.8 µM | 34.4 µM | 1.98 µM | 25.8 µM | 0.515 µM | 0.264 µM | 0.892 µM | 0.152 µM | 0.684 µM | 0.332 µM | 1.39 µM | 0.413 µM
CC(=O)N1CCN(C23OC4(N5CCN(C(C)=O)CC5)C5C6CC(C7C6C4C72)C53)CC1 (centres undefined) | > 100 µM | > 100 µM | > 100 µM | > 100 µM | > 100 µM | > 100 µM | > 100 µM | > 100 µM | > 100 µM | > 100 µM | – | – | – | – | – | – | – | – | – | –
COc1cc(S(=O)(=O)Nc2ccc(-c3csc(N4C(=O)CSC4c4ccccc4)n3)cc2)ccc1Cl (centres undefined) | > 100 µM | > 100 µM | > 100 µM | > 100 µM | > 100 µM | 54.4 µM | > 100 µM | > 100 µM | > 100 µM | > 100 µM | – | – | – | – | – | – | – | – | – | –
O=c1[nH]c2cc3[nH]c4ncccc4c(=O)c3cc2[nH]1 | > 10 µM | > 10 µM | > 10 µM | > 10 µM | > 10 µM | > 10 µM | > 10 µM | > 10 µM | > 10 µM | > 10 µM | – | – | – | – | – | – | – | – | – | –
CC1(C)Oc2ccc(NC(=O)CCC(N)C(=O)O)cc2O1 (centres undefined) | > 100 µM | > 100 µM | > 100 µM | > 100 µM | > 100 µM | > 100 µM | > 100 µM | > 100 µM | > 100 µM | > 100 µM | – | – | – | – | – | – | – | – | – | –
C[C@]12CC[C@@H]3c4ccc(OC(=O)c5ccccc5)cc4CC[C@H]3[C@@H]1CC[C@@H]2Oc1c2ccccc2nc2ccccc12 | > 50 µM | 21.6 µM | 13.2 µM | 18.2 µM | 25.1 µM | 36.9 µM | 15.7 µM | 14.8 µM | 48 µM | 44 µM | – | – | – | – | – | – | – | – | – | –
Cc1sc2ccccc2[n+]1CCC(=O)O | > 100 µM | > 100 µM | > 100 µM | > 100 µM | > 100 µM | > 100 µM | > 100 µM | > 100 µM | > 100 µM | > 100 µM | – | – | – | – | – | – | – | – | – | –
Cc1ccc(S(=O)(=O)c2c(O)c3ccccc3n(C)c2=O)cc1 | > 100 µM | > 100 µM | > 100 µM | > 100 µM | > 100 µM | > 100 µM | > 100 µM | > 100 µM | > 100 µM | > 100 µM | – | – | – | – | – | – | – | – | – | –
CC(C)OP(=O)(OC(C)C)C(C(C)C)N(C)/C(F)=N/C(F)(F)F (centres undefined) | – | > 100 µM | > 100 µM | > 100 µM | > 100 µM | > 100 µM | > 100 µM | > 100 µM | > 100 µM | > 100 µM | – | – | – | – | – | – | – | – | – | –
CC1(COS(=O)(=O)OCC2(C)COS(=O)(=O)OC2)COS(=O)(=O)OC1 | > 100 µM | > 100 µM | > 100 µM | > 100 µM | > 96.2 µM | > 63.8 µM | > 100 µM | > 100 µM | > 96.8 µM | > 77.3 µM | – | – | – | – | – | – | – | – | – | –
O=c1[nH]c(Nc2cccc(Cl)c2)nc2nc[nH]c12 | > 100 µM | > 100 µM | > 100 µM | > 100 µM | > 100 µM | > 100 µM | > 100 µM | > 100 µM | > 100 µM | > 100 µM | – | – | – | – | – | – | – | – | – | –

Reference: PubChem BioAssay (NCI)
